Results published in US10472358B2, “1H-pyrrolo[2,3-c]pyridin-7(6H)-ones and pyrazolo[3,4-c]pyridin-7(6H)-ones as inhibitors of BET proteins” (Incyte Corporation, priority 2014, dated 2019).

system: KMS.12.BM cells; experiment: KMS.12.BM cell viability assay (Cell Titer-GLO, ATP quantitation); assay type: cell-based; conditions: KMS-12-BM, 72 h; human myeloma cells, 3 days, concentration required for 50% cell death
Method: Example B1: KMS.12.BM Cell Viability Assay
KMS.12.BM cell line (human myeloma) was purchased from JCRB (Osaka, Japan) and maintained in RPMI with 10% FBS culture medium. To measure the cytotoxic activity of the compounds through ATP quantitation, the KMS.12.BM cells are plated in the RPMI culture medium at 5000 cells/well/per 100 μL into a 96-well polystyrene clear black tissue culture plate (Greiner-bio-one through VWR, NJ), in the presence or absence of a concentration range of test compounds. After 3 days, […] Cell Titer-GLO Luminescent (Promega, Madison, Wis.) cell culture agent is added to each well for 10 minutes at room temperature to stabilize the luminescent signal. This determines the number of viable cells in culture based on quantitation of the ATP present, which signals the presence of metabolically active cells. Luminescence is measured with the Top Count 384 (Packard Bioscience through Perkin Elmer, Boston, Mass.). Compound inhibition is determined relative to cells cultured with no drug and the IC50 is reported as the compound concentration required for 50% cell death.

Row | SMILES | IC50
1 | CN(C)S(=O)(=O)c1cc2c(c(-c3cn(C)c(=O)c4[nH]ccc34)c1)OC(C)(C)C(=O)N2 [Example 70, N,N,2,2-tetramethyl-8-(6-methyl-7-oxo-6,7-dihydro-1H-pyrrolo[2,3-c]pyridin-4-yl)-3-oxo-3,4-dihydro-2H-1,4-benzoxazine-6-sulfonamide] | ≤ 1000 nM
2 | COc1cc2c(c(-c3cn(C)c(=O)c4[nH]ccc34)c1)OC(c1ccc(F)cc1Cl)C(=O)N2 (centres unmarked) [Example 25, 2-(2-chloro-4-fluorophenyl)-6-methoxy-8-(6-methyl-7-oxo-6,7-dihydro-1H-pyrrolo[2,3-c]pyridin-4-yl)-2H-1,4-benzoxazin-3(4H)-one] | ≤ 1000 nM
3 | CN1C(=O)C(C)(C)Oc2c(-c3cn(C)c(=O)c4[nH]ccc34)cc(S(=O)(=O)N(C)C)cc21 [Example 69, N,N,2,2,4-pentamethyl-8-(6-methyl-7-oxo-6,7-dihydro-1H-pyrrolo[2,3-c]pyridin-4-yl)-3-oxo-3,4-dihydro-2H-1,4-benzoxazine-6-sulfonamide] | ≤ 1000 nM
4 | COc1cc(-c2cn(C)c(=O)c3[nH]ccc23)c2c(c1)N(Cc1ccncc1)C(=O)C(C(C)C)O2 (centres unmarked) [Example 15, 2-isopropyl-6-methoxy-8-(6-methyl-7-oxo-6,7-dihydro-1H-pyrrolo[2,3-c]pyridin-4-yl)-4-(pyridin-4-ylmethyl)-2H-1,4-benzoxazin-3(4H)-one] | ≤ 1000 nM
5 | CC(C)C1Oc2c(cccc2-c2cn(C)c(=O)c3[nH]ccc23)NC1=O (centres unmarked) [Example 2, 2-isopropyl-8-(6-methyl-7-oxo-6,7-dihydro-1H-pyrrolo[2,3-c]pyridin-4-yl)-2H-1,4-benzoxazin-3(4H)-one] | ≤ 1000 nM
6 | CCS(=O)(=O)c1cc(-c2cn(C)c(=O)c3[nH]ccc23)c2c(c1)N(C)C(=O)C(C(C)C)O2 (centres unmarked) [Example 55, 6-(ethylsulfonyl)-2-isopropyl-4-methyl-8-(6-methyl-7-oxo-6,7-dihydro-1H-pyrrolo[2,3-c]pyridin-4-yl)-2H-1,4-benzoxazin-3(4H)-one] | ≤ 1000 nM
7 | Cn1cc(-c2cc(S(C)(=O)=O)cc3c2OC2(CC2)C(=O)N3)c2cc[nH]c2c1=O [Example 57, 8-(6-methyl-7-oxo-6,7-dihydro-1H-pyrrolo[2,3-c]pyridin-4-yl)-6-(methylsulfonyl)spiro[1,4-benzoxazine-2,1′-cyclopropan]-3(4H)-one] | ≤ 1000 nM
8 | COc1cc(-c2cn(C)c(=O)c3[nH]ccc23)c2c(c1)N(CC(N)=O)C(=O)C(C(C)C)O2 (centres unmarked) [Example 13, 2-[2-isopropyl-6-methoxy-8-(6-methyl-7-oxo-6,7-dihydro-1H-pyrrolo[2,3-c]pyridin-4-yl)-3-oxo-2,3-dihydro-4H-1,4-benzoxazin-4-yl]acetamide] | ≤ 1000 nM
9 | CC(C)C1Oc2c(-c3cn(C)c(=O)c4[nH]ccc34)cc(C#N)cc2N(C)C1=O (centres unmarked) [Example 18, 2-isopropyl-4-methyl-8-(6-methyl-7-oxo-6,7-dihydro-1H-pyrrolo[2,3-c]pyridin-4-yl)-3-oxo-3,4-dihydro-2H-1,4-benzoxazine-6-carbonitrile] | ≤ 1000 nM
10 | CCC1Oc2c(cccc2-c2cn(C)c(=O)c3[nH]ccc23)NC1=O (centres unmarked) [Example 4, 2-ethyl-8-(6-methyl-7-oxo-6,7-dihydro-1H-pyrrolo[2,3-c]pyridin-4-yl)-2H-1,4-benzoxazin-3(4H)-one] | ≤ 1000 nM
11 | CC(C)C1Oc2c(-c3cn(C)c(=O)c4[nH]ccc34)cc(S(C)(=O)=O)cc2N(CC2CC2)C1=O (centres unmarked) [Example 53, 4-(cyclopropylmethyl)-2-isopropyl-8-(6-methyl-7-oxo-7-dihydro-1H-pyrrolo[2,3-c]pyridin-4-yl)-6-(methylsulfonyl)-2H-1,4-benzoxazin-3(4H)-one] | ≤ 1000 nM
12 | CC(C)C1Oc2c(-c3cn(C)c(=O)c4[nH]ccc34)cc(S(=O)(=O)C(C)C)cc2N(C)C1=O (centres unmarked) [Example 56, 2-isopropyl-6-(isopropylsulfonyl)-4-methyl-8-(6-methyl-7-oxo-6,7-dihydro-1H-pyrrolo[2,3-c]pyridin-4-yl)-2H-1,4-benzoxazin-3(4H)-one] | ≤ 1000 nM
13 | COc1cc(-c2cn(C)c(=O)c3[nH]ccc23)c2c(c1)N(CC(=O)N1CCN(C)CC1)C(=O)C(C(C)C)O2 (centres unmarked) [Example 14, 2-isopropyl-6-methoxy-8-(6-methyl-7-oxo-6,7-dihydro-1H-pyrrolo[2,3-c]pyridin-4-yl)-4-[2-(4-methylpiperazin-1-yl)-2-oxoethyl]-2H-1,4-benzoxazin-3(4H)-one] | ≤ 1000 nM
14 | COc1cc2c(c(-c3cn(C)c(=O)c4[nH]ncc34)c1)OC(C1CCCC1)C(=O)N2 (single isomer, unassigned) [Example 42A, 2-cyclopentyl-6-methoxy-8-(6-methyl-7-oxo-6,7-dihydro-1H-pyrazolo[3,4-c]pyridin-4-yl)-2H-1,4-benzoxazin-3(4H)-one] | ≤ 1000 nM
15 | CC(C)C1Oc2c(cc(C(=O)N(C)C)cc2-c2cn(C)c(=O)c3[nH]ccc23)NC1=O (centres unmarked) [Example 34, 2-isopropyl-N,N-dimethyl-8-(6-methyl-7-oxo-6,7-dihydro-1H-pyrrolo[2,3-c]pyridin-4-yl)-3-oxo-3,4-dihydro-2H-1,4-benzoxazine-6-carboxamide] | ≤ 1000 nM
16 | CC(O)c1cc(-c2cn(C)c(=O)c3[nH]ccc23)c2c(c1)N(C)C(=O)C(C)(C)O2 (centres unmarked) [Example 83, 6-(1-hydroxyethyl)-2,2,4-trimethyl-8-(6-methyl-7-oxo-6,7-dihydro-1H-pyrrolo[2,3-c]pyridin-4-yl)-2H-1,4-benzoxazin-3(4H)-one] | ≤ 1000 nM
17 | Cn1cc(-c2cccc3c2OC2(CC2)C(=O)N3)c2cc[nH]c2c1=O [Example 30, 8-(6-methyl-7-oxo-6,7-dihydro-1H-pyrrolo[2,3-c]pyridin-4-yl)spiro[1,4-benzoxazine-2,1′-cyclopropan]-3(4H)-one] | ≤ 1000 nM
18 | Cn1cc(-c2cccc3c2OC(C)(C)C(=O)N3)c2cc[nH]c2c1=O [Example 31, 2,2-dimethyl-8-(6-methyl-7-oxo-6,7-dihydro-1H-pyrrolo[2,3-c]pyridin-4-yl)-2H-1,4-benzoxazin-3(4H)-one] | ≤ 1000 nM
19 | CC(C)C1Oc2c(cc(C(=O)N3CCOCC3)cc2-c2cn(C)c(=O)c3[nH]ccc23)NC1=O (centres unmarked) [Example 33, 2-isopropyl-8-(6-methyl-7-oxo-6,7-dihydro-1H-pyrrolo[2,3-c]pyridin-4-yl)-6-(morpholin-4-ylcarbonyl)-2H-1,4-benzoxazin-3(4H)-one] | ≤ 1000 nM
20 | COc1cc2c(c(-c3cn(C)c(=O)c4[nH]ncc34)c1)OC(C)(C)C(=O)N2 [Example 29, 6-methoxy-2,2-dimethyl-8-(6-methyl-7-oxo-6,7-dihydro-1H-pyrazolo[3,4-c]pyridin-4-yl)-2H-1,4-benzoxazin-3(4H)-one] | ≤ 1000 nM
21 | COc1cc(-c2cn(C)c(=O)c3[nH]ccc23)c2c(c1)N(C)C(=O)C(C(C)C)O2 (centres unmarked) [Example 10, 2-isopropyl-6-methoxy-4-methyl-8-(6-methyl-7-oxo-6,7-dihydro-1H-pyrrolo[2,3-c]pyridin-4-yl)-2H-1,4-benzoxazin-3(4H)-one] | ≤ 1000 nM
22 | CCS(=O)(=O)c1cc2c(c(-c3cn(C)c(=O)c4[nH]ccc34)c1)OC(C)(C)C(=O)N2 [Example 78, 6-(ethylsulfonyl)-2,2-dimethyl-8-(6-methyl-7-oxo-6,7-dihydro-1H-pyrrolo[2,3-c]pyridin-4-yl)-2H-1,4-benzoxazin-3(4H)-one] | ≤ 1000 nM
23 | CN1C(=O)C(C)(C)Oc2c(-c3cn(C)c(=O)c4[nH]ccc34)cc(S(=O)(=O)N3CCCCC3)cc21 [Example 73, 2,2,4-trimethyl-8-(6-methyl-7-oxo-6,7-dihydro-1H-pyrrolo[2,3-c]pyridin-4-yl)-6-(piperidin-1-ylsulfonyl)-2H-1,4-benzoxazin-3(4H)-one] | ≤ 1000 nM
24 | CCC1Oc2c(-c3cn(C)c(=O)c4[nH]ccc34)cccc2N(C)C1=O (centres unmarked) [Example 8, 2-ethyl-4-methyl-8-(6-methyl-7-oxo-6,7-dihydro-1H-pyrrolo[2,3-c]pyridin-4-yl)-2H-1,4-benzoxazin-3(4H)-one] | ≤ 1000 nM
25 | CNS(=O)(=O)c1cc2c(c(-c3cn(C)c(=O)c4[nH]ccc34)c1)OC(C(C)C)C(=O)N2 (centres unmarked) [Example 68, 2-isopropyl-N-methyl-8-(6-methyl-7-oxo-6,7-dihydro-1H-pyrrolo[2,3-c]pyridin-4-yl)-3-oxo-3,4-dihydro-2H-1,4-benzoxazine-6-sulfonamide] | ≤ 1000 nM
26 | CC(C)C1Oc2c(cc(S(C)(=O)=O)cc2-c2cn(C)c(=O)c3[nH]ccc23)NC1=O (single isomer, unassigned) [Example 44A, 2-isopropyl-8-(6-methyl-7-oxo-6,7-dihydro-1H-pyrrolo[2,3-c]pyridin-4-yl)-6-(methylsulfonyl)-2H-1,4-benzoxazin-3(4H)-one] | ≤ 1000 nM
27 | COc1cc2c(c(-c3cn(C)c(=O)c4[nH]ccc34)c1)OC(C1CC1)C(=O)N2 (centres unmarked) [Example 23, 2-cyclopropyl-6-methoxy-8-(6-methyl-7-oxo-6,7-dihydro-1H-pyrrolo[2,3-c]pyridin-4-yl)-2H-1,4-benzoxazin-3(4H)-one] | 1000 to 10000 nM

same assay, conditions: human myeloma cells, 3 days, concentration required for 50% cell death

Row | SMILES | IC50
28 | CC(C)C1Oc2c(-c3cn(C)c(=O)c4[nH]ccc34)cc(S(C)(=O)=O)cc2N(C)C1=O (single isomer, unassigned) [Example 47B, 2-isopropyl-4-methyl-8-(6-methyl-7-oxo-6,7-dihydro-1H-pyrrolo[2,3-c]pyridin-4-yl)-6-(methylsulfonyl)-2H-1,4-benzoxazin-3(4H)-one] | ≤ 1000 nM
29 | COc1cc2c(c(-c3cn(C)c(=O)c4[nH]ncc34)c1)OC(C1CCCC1)C(=O)N2 (single isomer, unassigned) [Example 42B, 2-cyclopentyl-6-methoxy-8-(6-methyl-7-oxo-6,7-dihydro-1H-pyrazolo[3,4-c]pyridin-4-yl)-2H-1,4-benzoxazin-3(4H)-one] | ≤ 1000 nM
